System: HCV replicon with Renilla luciferase reporter in HUH-7 cells
Assay: HCV replicon luciferase reporter assay
Assay type: cell-based, Hepatitis C virus
Text: An HCV replicon whole cell system was established as described by Lohmann V, Korner F, Koch J, Herian U, Theilmann L, Bartenschlager R., Science 285(5424): 110-3 (1999). This system enabled us to evaluate the effects of our HCV Protease compounds on HCV RNA replication. Briefly, using the HCV strain 1b sequence described in the Lohmann paper (Assession number: AJ238799), an HCV cDNA was synthesized by Operon Technologies, Inc. (Alameda, Calif.), and the full-length replicon was then assembled in plasmid pGem9zf(+) (Promega, Madison, Wis.) using standard molecular biology techniques. The replicon consists of (i) the HCV 5′ UTR fused to the first 12 amino acids of the capsid protein, (ii) the neomycin phosphotransferase gene (neo), (iii) the IRES from encephalomyocarditis virus (EMCV), and (iv) HCV NS3 to NS5B genes and the HCV 3′ UTR. […]
As a secondary assay, EC50 determinations from the replicon FRET assay were confirmed in a replicon luciferase reporter assay. […] Following 4 days in a 37° C./5% CO2 incubator, cells were analyzed for Renilla Luciferase activity using the Promega Dual-Glo Luciferase Assay System. […] Plates were read on a Packard TopCount NXT using a luminescence program.
The percentage inhibition was calculated using the formula below: […]
The values were graphed and analyzed using XLfit to obtain the EC50 value.

`C=C[C@@H]1C[C@]1(NC(=O)[C@@H]1C[C@@H](Oc2nc(N(C)C)cc3cc(OC)ccc23)CN1C(=O)C(Nc1cc(C)cc(C)n1)C(C)(C)C)C(=O)NS(=O)(=O)C1CC1` (single isomer, unassigned) [Compound 18] gave an EC50 of 1.1 nM.
